Measurements: patent publication US11331290B2, “Niclosamide for the treatment of cancer metastasis” (Max-Delbrück-Centrum für Molekulare Medizin in der …, priority 2011, dated 2022)

Columns and labels:
Test in all cases: Boyden chamber transwell migration assay
Assay type in all cases: cell-based, human
[1] = system: DLD-1 cells; conditions: 1 μM, 24 h
Experimental: (§1) HCT116, SW620, LS174T, SW480 and DLD-1 cells were used in cell migration and invasion analysis performed with Boyden chamber assay. 400 μL containing 2.5×10^5 cells were seeded into each transwell chamber with filter membranes of 12.0 μm pore size (Millipore, Schwalbach, Germany). For invasion filter membranes were coated with 50 μL Matrigel (diluted 1:3 in RPMI-1640; BD Biosciences) 10 minutes before cells were seeded. Fresh medium (600 μL) were added to the bottom chamber and cells were allowed to attach to the insets for 15 hours. Both chambers were treated with 1 μM niclosamide or the respective amount of DMSO and incubated at 37° C. and 5% CO2 in a humidified incubator for 24 hours. Afterwards insets were removed and cells that had migrated through the membrane to the lower chamber were trypsinized and counted in a Neubauer chamber (LO-Laboroptik, Bad Homburg, Germany). Each well was counted ten times. Each migration or invasion experiment was performed in duplicate. The average number of migrated or invaded cells was determined for at least three independent experiments.
(§2) (A) S100A4 expression under niclosamide treatment. Cells were treated with 1 μM niclosamide for 24 hours. S100A4 expression was analyzed with qRT-PCR and immunoblot. (B) Cell migration under niclosamide treatment. Migration rates of cells treated with 1 μM niclosamide for 24 hours were determined in a Boyden chamber assay values were normalized to solvent-treated SW620 cells. (C) Cell invasion under niclosamide treatment. Cells were seeded onto Matrigel covered transwells and treated with 1 μM niclosamide for 24 hours. Invaded cells in the lower chamber were counted and normalized to solvent-treated SW620 cells. Differences in solvent vs. niclosamide-treated cells were analyzed by Student's t test. Data represent mean±SE of at least two independent experiments each performed in triplicate. (D) Directed migration under niclosamide treatment. Wounds of 300 μM width were set in a 60% confluent monolayer of cells on day 1. Cells were treated daily with 1 μM niclosamide for 4 days. Microphotographs of day 4 are presented here with black lines indicating margins of the wound on day 1; scale bar represents 200 μM. Directed migration data shown are representatives of three independent experiments. (E) Adhesive cell proliferation under niclosamide treatment. Cells were treated daily with 1 μM niclosamide. The amount of viable cells per well was determined by MTT assay. (F) Anchorage-independent cell growth under niclosamide treatment. Cells were plated as single cells into 0.33% (w/v) agarose and treatment (solvent or 1 μM niclosamide) containing medium. After 7 days colonies were visualized by light microscopy at 10× (overview) and 40× (single colony) magnification. (G) Quantification of colonies formed. Number of colonies (of more than 4 cells) was counted and normalized to solvent-treated SW620 cells. Differences in solvent vs. niclosamide-treated cells were analyzed by Student's t test. Data represent mean mean±SE of at least two independent experiments each performed in duplicates.

[2] = system: LS174T cells; conditions: 1 μM, 24 h
Experimental: as §1, §2

[3] = system: SW480 cells; conditions: 1 μM, 24 h
Experimental: as §1, §2

[4] = system: SW620 cells; conditions: 1 μM, 24 h
Experimental: as §1, §2

[5] = system: HAB-68mut cells; conditions: 1 μM, 24 h
Experimental: as §1
(§3) For WNT pathway analysis the following cells were applied: HCT116 cells (heterozygous for gain-of-function-mutated CTNNB1; wt/mut), HAB-68mut cells (deletion mutant of HCT116, expressing only gain-of-function-mutated CTNNB1: −/mut) and HAB-92 wt cells (deletion mutant of HCT116, expressing only wild-type CTNNB1: wt/−). (A) CTNNB1 genotype dependent effect of niclosamide on LEF/TCF transcription factor reporter gene expression. Cells were treated with 1 μM niclosamide for 24 hours. Reporter gene expression was determined by luciferase activity measurement. For each condition and cell line TOPflash expression was normalized to FOPflash expression. (B) CTNNB1 genotype dependent effect of niclosamide on S100A4 expression. Cells were treated with 1 μM niclosamide for 24 hours. S100A4 expression was analyzed by qRT-PCR and immunoblot. (C) CTNNB1 genotype dependent effect of niclosamide on migration rates. Cells were treated with 1 μM niclosamide for 24 hours and cell migration was determined by Boyden chamber assay. Data represents mean±SE of at least three independent experiments. Differences were analyzed by Student's t test (n.s.; not statistically significant). (D) Nuclear localization of CTNNB1 under niclosamide treatment. Nuclear extracts of HCT116 cells treated with the indicated concentrations of niclosamide for 18 hours were analyzed by immunoblot. (E) Effect of niclosamide on CTNNB1/TCF complex. Nuclear extracts of HCT116 cells treated with the indicated concentrations of niclosamide for 18 hours were analyzed by EMSA for the TCF-binding site of the S100A4 promoter. Supershift was performed by addition of a monoclonal anti-CTNNB1 antibody. […]

[6] = system: HAB-92 wt cells; conditions: 1 μM, 24 h, statistically not significant
Experimental: as §1, §3

`O=C(Nc1ccc([N+](=O)[O-])cc1Cl)c1cc(Cl)ccc1O` [niclosamide, 2′,5-dichloro-4′-nitrosalicylanilide] was tested, and the cell migration rate [1] was “not further affected”, the “migration, mean difference control vs niclosamide” value (from here on “migration, mean difference control”) [2] was 41.3% and the “cell migration rate, mean % (normalized to solvent-treated SW620 cells)” value ([2]; solvent control 68.2%) was 26.8%. For the same compound, the “migration, mean difference control” value [3] was 11.1%, the “cell migration rate, mean % (normalized to solvent-treated SW620 cells)” value ([3]; solvent control 21.7%) was 10.6% and the “migration, mean difference control” value [4] was 52.1%. For the same compound, the “cell migration rate, mean % (normalized to solvent-treated SW620 cells)” value ([4]; solvent control 100.0%) was 47.9%, the “migration rate, mean difference control vs niclosamide” value [5] was 0.91 and the “migration rate, mean (relative to HCT116 control)” value ([5]; control 1.30) was 0.39. For the same compound, the “migration rate, mean (relative to HCT116 control)” value ([6]; control 0.36) was 0.32 and the “migration rate, mean difference control vs niclosamide” value [6] was 0.04.
